We go through 3 compounds from patent US5380763A, “Topical composition for treating acne vulgaris” (Takasago International Corporation, priority 1992, dated 1995).

As a reminder, the MIC is the smallest concentration in the dilution series that meets the test's criterion for growth inhibition.

One assay deals with Staphylococcus aureaus. The settings on record: among 1-alkanols having 10 to 16 carbon atoms; Kato et al. (1980); cited from earlier work.
The test system of the next assay is Propionibacterium acnes. The experiment in a line: Minimum inhibitory concentration (MIC) against Propionibacterium acnes (Test Example 1). The class given is cell-based, Propionibacterium acnes (ATCC 6919). Conditions: Cutibacterium acnes. How it is done:
The minimum inhibitory concentration (MIC) of 1-pentadecanol against Propionibacterium acnes was determined as follows.
In 1 l of purified water was dissolved 59.0 g of a GAM (Gifu anaerobic medium) bouillon medium (Nissui Pharmaceutical Co., Ltd.) and 1-pentadecanol was added to the bouillon solution to give a concentration of 100 μg/ml. The mixture was stepwise diluted two times with the same medium, followed by sterilization.
A 10 ml aliquot of the mixture was put in a test tube and inoculated with 0.1 ml of the culture of Propionibacterium acnes (ATCC 6919) which had been precultured so as to give a cell density of 1×10^8 cells/ml. The system was static-cultured under anaerobic conditions for 48 hours, and the turbidity was measured at a wavelength of 660 nm to obtain MIC (μg/ml).
For comparison, MIC of 1-dodecanol and 1-hexadecanol, which have relatively strong antibacterial activity on several bacteria and are generally used as a base of cosmetics, against Propionibacterium acnes was obtained in the same manner.

Setting [1] is: GAM bouillon medium, anaerobic static culture 48 hours, turbidity at 660 nm, read-out: MIC.

Values after ≈ are worked out from the molar mass of the structure shown. Where two headings read alike, the source gives them in different places.

For the compound `CCCCCCCCCCCCO` [1-dodecanol], the “effectiveness on Staphylococcus aureaus” value in the assay with Staphylococcus aureaus is “the most effective”. For the same compound, the MIC with Propionibacterium acnes (setting [1]) turned out to be 25 µg/mL (≈ 134 µM).
As to `CCCCCCCCCCCCCCCCO` [1-hexadecanol], in the assay with Propionibacterium acnes (setting [1]), the MIC was more than 200 µg/mL.
On to `CCCCCCCCCCCCCCCO` [1-pentadecanol], for which inhibition of growth against Propionibacterium acnes (48 h) (MIC) required 3.13 µg/mL (≈ 13.7 µM).
